Test results published in PubChem BioAssay (NCI).
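Grown in 96-well plates, cells were treated for 48 hours with each compound at five concentrations. Insufficient inhibition: endpoint recorded as highest concentration tested. At the TGI there is no net growth.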

Legend:
Assay in all cases: DTP human tumour cell line panel, 48 h
[1] = tested on: NCI-H23 lung
[2] = tested on: T-47D breast
[3] = tested on: DU-145 prostate
[4] = tested on: UACC-257 melanoma
[5] = tested on: HCC-2998 colon
[6] = tested on: SNB-75 CNS
[7] = tested on: MCF7 breast
[8] = tested on: NCI-H460 lung
[9] = tested on: COLO 205 colon
[10] = tested on: MALME-3M melanoma
[11] = tested on: UACC-62 melanoma
[12] = tested on: UO-31 renal
[13] = tested on: HCT-15 colon
[14] = tested on: NCI-H226 lung
[15] = tested on: SF-295 CNS
[16] = tested on: EKVX NSCLC
[17] = tested on: TK-10 renal
[18] = tested on: MDA-N
[19] = tested on: OVCAR-8 ovarian
[20] = tested on: OVCAR-3 ovarian
[21] = tested on: M14 melanoma
[22] = tested on: OVCAR-5 ovarian
[23] = tested on: HT29 colon
[24] = tested on: CCRF-CEM leukemia
[25] = tested on: HCT-116 colon
[26] = tested on: MDA-MB-231 breast
[27] = tested on: MDA-MB-435
[28] = tested on: NCI/ADR-RES ovarian
[29] = tested on: HL-60(TB) leukemia
[30] = tested on: SR leukemia
[31] = tested on: NCI-H522 lung
[32] = tested on: IGROV1 ovarian
[33] = tested on: BT-549 breast
[34] = tested on: 786-0 renal
[35] = tested on: SN12C renal
[36] = tested on: LOX IMVI melanoma
[37] = tested on: SW-620 colon
[38] = tested on: SK-MEL-2 melanoma
[39] = tested on: HOP-62 NSCLC
[40] = tested on: SK-OV-3 ovarian
[41] = tested on: RPMI-8226 leukemia
[42] = tested on: K-562 leukemia
[43] = tested on: CAKI-1 renal
[44] = tested on: SK-MEL-28 melanoma
[45] = tested on: U251 CNS
[46] = tested on: SF-268 CNS
[47] = tested on: OVCAR-4 ovarian
[48] = tested on: RXF 393 renal
[49] = tested on: MOLT-4 leukemia
[50] = tested on: SK-MEL-5 melanoma
[51] = tested on: A498 renal
[52] = tested on: KM12 colon
[53] = tested on: HOP-92 NSCLC
[54] = tested on: A549 NSCLC
[55] = tested on: PC-3 prostate
[56] = tested on: SNB-19 CNS
[57] = tested on: ACHN renal
[58] = tested on: SF-539 CNS
[59] = tested on: HS 578T breast

Measured: TGI

O=S(=O)(O)c1cc(O)c2c(N=Cc3ccccc3O)cc(S(=O)(=O)O)cc2c1
> 100 µM: [1] | [2] | [3] | [4] | [5] | [6] | [7] | [8] | [9] | [10] | [11] | [12] | [13] | [14] | [15] | [16] | [17] | [18] | [19] | [20] | [21] | [22] | [23] | [24] | [25] | [26] | [27] | [28] | [29] | [30] | [31] | [32] | [33] | [34] | [35] | [36] | [37] | [38] | [39] | [40] | [41] | [42] | [43] | [44] | [45] | [46] | [47] | [48] | [49] | [50] | [51] | [52] | [53] | [54] | [55] | [56] | [57] | [58]

O=C1CCC2(CC1CC(Sc1ccccc1)Sc1ccccc1)OCCO2 (centres undefined)
88.1 µM: [59]
87.5 µM: [30]
66.3 µM: [49]
46 µM: [29]
66.1 µM: [9]
85.4 µM: [31]
97.3 µM: [2]
> 100 µM: [1] | [3] | [4] | [5] | [6] | [7] | [8] | [11] | [12] | [13] | [14] | [15] | [16] | [17] | [18] | [19] | [20] | [21] | [22] | [23] | [24] | [26] | [27] | [28] | [32] | [34] | [36] | [37] | [38] | [39] | [40] | [41] | [42] | [43] | [44] | [45] | [46] | [47] | [48] | [51] | [52] | [53] | [54] | [55] | [56] | [57] | [58]
38 µM: [50]
84.7 µM: [10]
